From US10864190B2 (CeMM—Forschungszentrum für Molekulare Medizin GmbH, priority 2015, dated 2020)

How the values were obtained:
[1] = system: LNCaP cells; assay: Dose-response matrix, viability of LNCaP cells; format: cell-based; details: 3 days, antiandrogen in combination with phenprocoumon
Experimental: LNCaP (ATCC, Manassas, Va., USA, CRL-1740) and PC-3 (ATCC, CRL-1435) cells were grown in RPMI-1640 supplemented with 10% fetal bovine serum (Thermo Fisher Scientific) and 1% penicillin/streptomycin (Sigma-Aldrich). For steroid-deprived experiments, LNCaP cells were cultured in RPMI-1640 supplemented with 10% charcoal stripped fetal bovine serum (Thermo Fisher Scientific) and 1% penicillin/streptomycin (Sigma-Aldrich).
CLOUD drugs and combinations thereof were transferred on 384-well plates using an acoustic liquid handler (Echo, Labcyte, Sunnyvale, Calif., USA) and 5,000 cells/well were dispensed on top of the drugs using a dispenser (Thermo Fisher Scientific) for a total of 50 μl/well. Viability was measured after 72 hours using CellTiter-Glo (Promega, Fitchburg, Wis., USA) in a multilabel plate reader (EnVision, PekinElmer, Waltham, Mass., USA). Signal was then normalized to negative (DMSO) and positive (10 μM dasatinib) controls and set between 0 and 100. […] Drug combinations were analyzed according to the Bliss independence model (Bliss C I, Ann Appl Biol, 1939, 26:585-615). Briefly, the effect of the combination of drug A and drug B can be predicted to be C=A+B−A*B where A and B are the effects of the single drugs expressed as fractional inhibition between 0 and 1. A deviation of the experimental value from the Bliss prediction was calculated. […]

[2] = system: AR signaling canonical targets (KLK3, TMPRSS2, KLK2) and AR; assay: RT-qPCR of AR and canonical targets of AR signaling in LNCaP cells; format: cell-based; details: 24 hours
Experimental: The RNeasy kit (Qiagen, Venlo, Netherlands) was used to extract RNA. cDNA was produced and reverse transcription quantitative polymerase chain reaction performed using the High Capacity cDNA Reverse Transcription kit and the SYBR Green Master mix from Thermo Fisher Scientific. Reverse transcription quantitative polymerase chain reaction was performed on a LightCycler 480 (Roche, Basel, Switzerland).

[3] = system: γ-carboxylated AR; assay: γ-carboxylation in LNCaP cells (western blotting, immunoprecipitation with anti-γ-carboxyglutamyl antibody); format: cell-based; details: LNCaP lysates, increasing amounts of phenprocoumon
Experimental: Cells were lysed in RIPA buffer supplemented with a cocktail of protease inhibitors (Roche). Lysates were resolved by sodium dodecyl sulfate-polyacrylamide gel electrophoresis. AR (#5153) and GAPDH (#5174) antibodies were purchased from Cell Signaling Technology (Danvers, Mass., USA). αTUB antibody (ab7291) was purchased from Abcam (Cambridge, UK). Anti-γ-carboxyglutamyl antibody (REF 3570) was purchased from Sekisui Diagnostics (Lexington, Mass., USA).
(§1) Cells were lysed in IP buffer (50 mM Tris pH 8, 150 mM NaCl, 1% Igepal) supplemented with a cocktail of protease inhibitors (Roche). Immunoprecipitations were performed at 4° C. and using Dynabeads Protein G (Thermo Fisher Scientific). Lysates were precleared with beads for 30 minutes, incubated with antibodies overnight (1 μg antibody was used for 50 μg protein) and immunoprecipitated for 2 hours. After washing, immunoprecipitated proteins were eluted by either boiling in Laemmli buffer or using 50 mM glycine pH 2.8.

[4] = system: androgen receptor (AR); assay: 2D difference gel electrophoresis (DIGE) of immunoprecipitated AR; format: cell-based; details: AR immunoprecipitated from LNCaP cells, versus DMSO
Experimental: as §1
IP lysates eluted with glycine buffer were used for 2D difference gel electrophoresis (DIGE). […] Rehydration and isoelectric focusing on IPG strips (ReadyStrip IPG Strips, 11 cm, pH 3-10, non-linear (BioRad)) was followed by SDS-PAGE on gradient gels (Criterion, Any kD, BioRad) and detection with a Typhoon fluorescence scanner at the recommended excitation and emission wavelengths for G-Dye200 and G. Images were analyzed using Delta2D 4.3 software (Decodon, Greifswald, Germany).
The inventors then assessed whether phenprocoumon treatment could otherwise modify AR and analyzed the migration pattern of the protein by means of 2D gel electrophoresis (see FIG. 13H).

[5] = target: T1, androgen receptor (AR) (Homo sapiens, UniProt P10275, T878A); assay: Cellular thermal shift assay (CETSA); format: binding
T1 construct: AR immunoprecipitated from LNCaP cells treated with either DMSO or phenprocoumon; host or cells: LNCaP
T1 sequence (P10275 whole entry T878A): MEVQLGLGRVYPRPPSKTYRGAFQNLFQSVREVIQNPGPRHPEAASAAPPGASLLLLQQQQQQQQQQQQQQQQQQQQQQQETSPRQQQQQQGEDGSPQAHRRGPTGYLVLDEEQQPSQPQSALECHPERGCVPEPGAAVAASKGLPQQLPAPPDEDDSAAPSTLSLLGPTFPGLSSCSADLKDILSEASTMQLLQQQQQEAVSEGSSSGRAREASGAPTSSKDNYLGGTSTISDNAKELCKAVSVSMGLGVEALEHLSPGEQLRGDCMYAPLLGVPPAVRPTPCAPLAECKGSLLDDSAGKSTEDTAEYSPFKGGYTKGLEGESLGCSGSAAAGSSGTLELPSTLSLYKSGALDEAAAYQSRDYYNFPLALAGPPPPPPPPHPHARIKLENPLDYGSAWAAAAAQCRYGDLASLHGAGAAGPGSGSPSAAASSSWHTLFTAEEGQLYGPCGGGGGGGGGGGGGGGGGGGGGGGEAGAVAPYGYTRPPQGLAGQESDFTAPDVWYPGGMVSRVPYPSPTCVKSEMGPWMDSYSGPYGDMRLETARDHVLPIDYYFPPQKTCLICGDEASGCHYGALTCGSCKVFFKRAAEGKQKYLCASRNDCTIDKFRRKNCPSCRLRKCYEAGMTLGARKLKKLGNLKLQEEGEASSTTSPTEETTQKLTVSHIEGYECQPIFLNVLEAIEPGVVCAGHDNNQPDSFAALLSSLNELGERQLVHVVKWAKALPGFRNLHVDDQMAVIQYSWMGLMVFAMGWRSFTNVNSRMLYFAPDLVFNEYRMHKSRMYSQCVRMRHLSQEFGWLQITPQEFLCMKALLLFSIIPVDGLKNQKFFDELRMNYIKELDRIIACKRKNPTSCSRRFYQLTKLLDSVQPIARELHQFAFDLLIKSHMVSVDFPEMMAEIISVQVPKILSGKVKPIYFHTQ
Experimental: LNCaP cells were treated with DMSO or 35 μM PPC for 2 days and then harvested maintaining a constant concentration of PPC in all subsequent handling buffers. Otherwise, lysates were directly treated with the drug as already described (Martinez Molina D et al., Science, 2013, 341:84-7).

isoelectric point of AR (migration pattern) [4] | thermal stability of AR ([5]; LNCaP cell lysates treated with 100 μM PPC for 30 min, no pretreatment) | thermal stability of AR ([5]; LNCaP cells treated with 35 μM PPC for 2 days) | SMILES | synergy in combination with phenprocoumon [1] | effect on induction of AR signaling (KLK3, KLK2) by R1881 ([2]; 10 nM R1881 ± 35 μM PPC) | expression of AR signaling canonical targets KLK3, TMPRSS2 and KLK2 ([2]; steroid-deprived medium, 15 μM flutamide, 35 μM PPC) | amount of AR immunoprecipitated with γ-carboxylation-specific antibody [3]
 |  |  | CC1(C)NC(=O)N(c2ccc([N+](=O)[O-])c(C(F)(F)F)c2)C1=O [nilutamide] | synergistic interaction with phenprocoumon, albeit to a lower extent compared to flutamide |  |  | 
 |  |  | CNC(=O)c1ccc(N2C(=S)N(c3ccc(C#N)c(C(F)(F)F)c3)C(=O)C2(C)C)cc1F [enzalutamide] | synergistic interaction with phenprocoumon, albeit to a lower extent compared to flutamide |  |  | 
migrated at a higher isoelectric point | did not stabilize AR | affects the thermal stability of AR | CCC(c1ccccc1)c1c(O)c2ccccc2oc1=O (centres unmarked) [phenprocoumon] |  | did not interfere with the induction of AR signaling | did not affect the expression of these genes | reduced the amount of immunopreciptated protein in a dose-dependent manner
